This test deals with CD2F1 mice, L1210 leukemia ip, survival T/C. Description: NCI In Vivo Anticancer Drug Screen. Data for tumor model L1210 Leukemia (intraperitoneal) in CD2F1 (CDF1) mice. To be noted: higher = longer survival. The gist of the method:
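Ratio T/C, where T is the treated-group value and C the vehicle-dosed control value, from mice implanted with a transplantable tumor.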

Setting [1] is: endpoint: mean survival time, dose: 25.0 mg/kg/injection, schedule: Q04DX003 (ip), vehicle: saline with Tween-80.
Setting [2] is: endpoint: mean survival time, dose: 50.0 mg/kg/injection, schedule: Q04DX003 (ip), vehicle: saline with Tween-80.
The mark [3] stands for this setting: endpoint: mean survival time, dose: 100.0 mg/kg/injection, schedule: Q04DX003 (ip), vehicle: saline with Tween-80.
Setting [4] is: endpoint: mean survival time, dose: 200.0 mg/kg/injection, schedule: Q04DX003 (ip), vehicle: saline with Tween-80.
[5] abbreviates: endpoint: mean survival time, dose: 400.0 mg/kg/injection, schedule: Q04DX003 (ip), vehicle: saline with Tween-80.
Where [6] appears, read: endpoint: mean survival time, dose: 100.0 mg/kg/injection, schedule: Q01DX001 (ip), vehicle: saline.
Where [7] appears, read: endpoint: mean survival time, dose: 200.0 mg/kg/injection, schedule: Q01DX001 (ip), vehicle: saline.
Where [8] appears, read: endpoint: mean survival time, dose: 400.0 mg/kg/injection, schedule: Q01DX001 (ip), vehicle: saline.
[9] abbreviates: endpoint: mean survival time, dose: 100.0 mg/kg/injection, schedule: Q01DX009 (ip), vehicle: saline with Tween-80.
[10] abbreviates: endpoint: mean survival time, dose: 200.0 mg/kg/injection, schedule: Q01DX009 (ip), vehicle: saline with Tween-80.
Where [11] appears, read: endpoint: mean survival time, dose: 100.0 mg/kg/injection, schedule: Q04DX003 (ip), vehicle: saline.
[12] abbreviates: endpoint: mean survival time, dose: 200.0 mg/kg/injection, schedule: Q04DX003 (ip), vehicle: saline.
[13] abbreviates: endpoint: mean survival time, dose: 400.0 mg/kg/injection, schedule: Q04DX003 (ip), vehicle: saline.

Values joined by “and” are separate entries in the source; they are usually repeats but may differ in a detail not shown here. Identical values can stand only once. Inconclusive results and toxic doses are left out.

Regarding `Cc1sc2ncnc(Cl)c2c1C`, the T/C under setting [1] was 103 % of control; the T/C under setting [2] was 114 % of control; the T/C (endpoint: mean survival time, dose: 100.0 mg/kg/injection, schedule: Q01DX001 (ip), vehicle: saline with Tween-80) is 97 % of control; the T/C under setting [3] is 94 % of control.

As to `Nc1ccc(OCc2nc(N)nc(N)c2-c2cccc(Cl)c2)cc1`, the T/C is 103 % of control (endpoint: mean survival time, dose: 100.0 mg/kg/injection, schedule: Q01DX001 (ip), vehicle: saline + alcohol); 101 % of control (endpoint: mean survival time, dose: 200.0 mg/kg/injection, schedule: Q01DX001 (ip), vehicle: saline + alcohol); 106 % of control (endpoint: mean survival time, dose: 400.0 mg/kg/injection, schedule: Q01DX001 (ip), vehicle: saline + alcohol).

For `O=C(O)CC/C(=N\O)c1cccc([N+](=O)[O-])c1`, the T/C under setting [3] is 102 % of control, the T/C under setting [4] was 102 % of control and the T/C under setting [5] was 98 % of control.

Regarding `CCOC(OCC)c1cc(=O)[nH]c(N)n1`, the T/C was 103 % of control under setting [6], 101 % of control under setting [7] and 100 % of control under setting [8].

Consider `OCC(O)C(O)C(OC1OC(CO)C(O)C(O)C1O)C(O)CO` (centres undefined), for which the T/C (endpoint: mean survival time, dose: 50.0 mg/kg/injection, schedule: Q01DX009 (ip), vehicle: saline with Tween-80) is 97 % of control; the T/C under setting [9] was 109 % of control; the T/C under setting [10] was 106 % of control.

For the compound `CNC/C(C)=C/Br`, the T/C is, setting by setting: (endpoint: mean survival time, dose: 50.0 mg/kg/injection, schedule: Q01DX009 (ip), vehicle: acetone) 101 % of control; (endpoint: mean survival time, dose: 100.0 mg/kg/injection, schedule: Q04DX003 (ip), vehicle: acetone) 101 % of control; (endpoint: mean survival time, dose: 200.0 mg/kg/injection, schedule: Q04DX003 (ip), vehicle: acetone) 97 % of control.

In the case of `Nc1n[nH]c(=O)[nH]1`, the T/C (endpoint: mean survival time, dose: 31.3 mg/kg/injection, schedule: Q03HX024 (ip), vehicle: saline) is 106 % of control; the T/C (endpoint: mean survival time, dose: 62.5 mg/kg/injection, schedule: Q03HX024 (ip), vehicle: saline) was 106 % of control; the T/C (endpoint: mean survival time, dose: 125.0 mg/kg/injection, schedule: Q03HX024 (ip), vehicle: saline) was 109 % of control; the T/C (endpoint: mean survival time, dose: 250.0 mg/kg/injection, schedule: Q03HX024 (ip), vehicle: saline) was 161 % of control.

As for `N#CC(=N)N1CCN(C(=N)C#N)CC1`, the T/C (endpoint: mean survival time, dose: 25.0 mg/kg/injection, schedule: Q04DX002 (ip), vehicle: saline with Tween-80) is 93 % of control; the T/C (endpoint: mean survival time, dose: 50.0 mg/kg/injection, schedule: Q04DX002 (ip), vehicle: saline with Tween-80) was 86 % of control; the T/C under setting [6] is 97 % of control.

With `COC(=O)c1cocc1C(=O)OC`, the T/C by setting is: (endpoint: mean survival time, dose: 100.0 mg/kg/injection, schedule: Q04DX002 (ip), vehicle: saline with Tween-80) 95 % of control; (endpoint: mean survival time, dose: 200.0 mg/kg/injection, schedule: Q04DX002 (ip), vehicle: saline with Tween-80) 91 % of control; (endpoint: mean survival time, dose: 400.0 mg/kg/injection, schedule: Q04DX002 (ip), vehicle: saline with Tween-80) 95 % of control.

Turning to `c1ccc(CNCCCNCc2ccccn2)nc1`, the T/C under setting [6] was 100 % of control and the T/C under setting [7] was 100 % of control.

Turning to `O=[N+]([O-])c1ccccc1C[P+](c1ccccc1)(c1ccccc1)c1ccccc1`, the T/C is 98 % of control under setting [1] and 114 % of control under setting [2].

Consider `OCC1OC(n2cnc3c(Cl)nccc32)C(O)C1O` (centres undefined), for which the T/C (endpoint: median survival time, dose: 9.63 mg/kg/injection, schedule: Q01DX005 (ip), vehicle: saline) is 100 % of control; the T/C (endpoint: median survival time, dose: 19.25 mg/kg/injection, schedule: Q01DX005 (ip), vehicle: saline) is 104 % of control; the T/C (endpoint: median survival time, dose: 38.5 mg/kg/injection, schedule: Q01DX005 (ip), vehicle: saline) is 94 % of control; the T/C (endpoint: median survival time, dose: 77.0 mg/kg/injection, schedule: Q01DX005 (ip), vehicle: saline) was 108 % of control; the T/C (endpoint: median survival time, dose: 154.0 mg/kg/injection, schedule: Q01DX005 (ip), vehicle: saline) was 101 % of control.

Take `COc1cc2c(c3c1c(=O)c1cccc(F)c1n3C)C=CC(C)(C)O2`: the T/C is 118 % of control (endpoint: median survival time, dose: 50.0 mg/kg/injection, schedule: Q01DX009 (ip), vehicle: Klucel (hydroxypropylcellulose) (HPC)); 117 % of control (endpoint: median survival time, dose: 100.0 mg/kg/injection, schedule: Q01DX009 (ip), vehicle: Klucel (hydroxypropylcellulose) (HPC)); 120 % of control and 90 % of control (endpoint: median survival time, dose: 200.0 mg/kg/injection, schedule: Q01DX009 (ip), vehicle: Klucel (hydroxypropylcellulose) (HPC)).

Consider `Cn1nc2ccccc2n1`, for which the T/C is 104 % of control (endpoint: mean survival time, dose: 118.0 mg/kg/injection, schedule: Q04DX003 (ip), vehicle: saline with Tween-80); 98 % of control (endpoint: mean survival time, dose: 178.0 mg/kg/injection, schedule: Q04DX003 (ip), vehicle: saline with Tween-80); 109 % of control (endpoint: mean survival time, dose: 266.0 mg/kg/injection, schedule: Q04DX003 (ip), vehicle: saline with Tween-80); 96 % of control under setting [5].

Consider `O=C1Nc2ccc([N+](=O)[O-])c3c(C(=O)O)ccc1c23`, for which the T/C reads like this: under setting [3], 98 % of control; under setting [4], 104 % of control; under setting [5], 101 % of control.

For the compound `OCC1OC(n2ccc3c2ncn2cnnc32)C(O)C1O` (centres undefined), the T/C by setting is: (endpoint: mean survival time, dose: 6.25 mg/kg/injection, schedule: Q01DX005 (ip), vehicle: water) 104 % of control; (endpoint: mean survival time, dose: 12.5 mg/kg/injection, schedule: Q01DX005 (ip), vehicle: water) 103 % of control; (endpoint: mean survival time, dose: 25.0 mg/kg/injection, schedule: Q01DX005 (ip), vehicle: water) 92 % of control; (endpoint: mean survival time, dose: 50.0 mg/kg/injection, schedule: Q01DX005 (ip), vehicle: water) 92 % of control; (endpoint: mean survival time, dose: 100.0 mg/kg/injection, schedule: Q01DX005 (ip), vehicle: water) 92 % of control; (endpoint: mean survival time, dose: 200.0 mg/kg/injection, schedule: Q01DX005 (ip), vehicle: water) 89 % of control. Besides, for the setting “endpoint: mean survival time, dose: 400.0 mg/kg/injection, schedule: Q01DX005 (ip), vehicle: water”, the T/C is 95 % of control.

On to `CCC1(O)C(=O)OCc2c1cc1n(c2=O)Cc2cc3cc([N+](=O)[O-])ccc3nc2-1` (centres undefined), for which the T/C runs as follows: (endpoint: median survival time, dose: 3.63 mg/kg/injection, schedule: Q04DX002 (ip), vehicle: saline with Tween-80) 185 % of control; (endpoint: median survival time, dose: 7.25 mg/kg/injection, schedule: Q04DX002 (ip), vehicle: saline with Tween-80) 233 % of control; (endpoint: median survival time, dose: 7.5 mg/kg/injection, schedule: Q04DX002 (ip), vehicle: saline with Tween-80) 183 % of control; (endpoint: median survival time, dose: 15.5 mg/kg/injection, schedule: Q04DX002 (ip), vehicle: saline with Tween-80) 219 % of control and 103 % of control.

Turning to `CC/C(=N/O)c1ccccc1`, the T/C under setting [9] was 98 % of control; the T/C under setting [10] is 92 % of control; the T/C (endpoint: mean survival time, dose: 400.0 mg/kg/injection, schedule: Q01DX009 (ip), vehicle: saline with Tween-80) was 103 % of control.

As to `CSc1ncnc2nn(C3OC(COC(=O)c4ccccc4)C(OC(=O)c4ccccc4)C3OC(=O)c3ccccc3)nc12` (centres undefined), the T/C is 94 % of control (endpoint: median survival time, dose: 12.5 mg/kg/injection, schedule: Q01DX005 (ip), vehicle: Klucel (hydroxypropylcellulose) (HPC)); 86 % of control (endpoint: median survival time, dose: 25.0 mg/kg/injection, schedule: Q01DX005 (ip), vehicle: Klucel (hydroxypropylcellulose) (HPC)); 87 % of control (endpoint: median survival time, dose: 50.0 mg/kg/injection, schedule: Q01DX005 (ip), vehicle: Klucel (hydroxypropylcellulose) (HPC)); 93 % of control and 95 % of control (endpoint: median survival time, dose: 100.0 mg/kg/injection, schedule: Q01DX005 (ip), vehicle: Klucel (hydroxypropylcellulose) (HPC)); 89 % of control and 95 % of control (endpoint: median survival time, dose: 200.0 mg/kg/injection, schedule: Q01DX005 (ip), vehicle: Klucel (hydroxypropylcellulose) (HPC)); 95 % of control (endpoint: median survival time, dose: 400.0 mg/kg/injection, schedule: Q01DX005 (ip), vehicle: Klucel (hydroxypropylcellulose) (HPC)).

For `CCC(=O)C(C)N(C)C1CCCCC1` (centres undefined), the T/C is, setting by setting: under setting [11], 100 % of control; under setting [12], 102 % of control; under setting [13], 96 % of control.

With `C[S+](C)CCC1NC(=O)NC1=O` (centres undefined), the T/C under setting [3] was 107 % of control; the T/C under setting [11] is 98 % of control; the T/C under setting [4] is 102 % of control; the T/C under setting [12] is 102 % of control; the T/C under setting [5] is 93 % of control.

With `COc1ccc2c(c1)c1c(C)c3cnccc3c(C)c1n2CCO`, the T/C was 112 % of control under setting [3] and 115 % of control under setting [4].

In the case of `CC(=O)Oc1c(Br)cc(Br)cc1-c1ccccc1`, the T/C is, setting by setting: under setting [6], 95 % of control; under setting [11], 117 % of control; under setting [7], 94 % of control; under setting [12], 105 % of control; under setting [8], 101 % of control; under setting [13], 114 % of control.

(Values after PubChem BioAssay AID256 (DTP/NCI, 2004).)
